These results are taken from patent publication US6172104A, “Dicationic dibenzofuran and dibenzothiophene compounds and methods of use thereof” (priority 1999, dated 2001).

Counter-ions that a name gives are not always drawn.

Data set [1] deals with Pneumocystis carinii. Put plainly: Activity against Pneumocystis carinii pneumonia (PCP) in the rat model, dibenzofuran dications (Example 2, Table 2). Type of data set: in vivo. To be noted: for response vs control in vivo at 10 µmol/kg / response vs control in vivo at 22 µmol/kg / response vs control in vivo at 33 µmol/kg: Pneumocystis carinii, 336 h, read-out: Pneumocystis carinii % Saline control ± std error; for response vs control in vivo at 10 µmol/kg / response vs control in vivo at 22 µmol/kg: iv; for response vs control in vivo at 33 µmol/kg: 33.0 μmol/kg/day by oral gavage. From the text: Compounds 1-3 and 5-7 in the initial screen were given once daily by tail vein injection at a dose of 10 μmol/kg/day for 14 days, with activities compared to pentamidine at approximately one-half the effective iv dose of pentamidine, which is 22 μmol/kg/day.
Compounds 4 and 8 were synthesized to test if diamidoximes would be effective prodrugs of the dibenzofuran diamidines. Both the diamidoximes were screened for anti-P. carinii activity at 10 μmol/kg/day by tail vein injection and 33 μmol/kg/day by oral gavage for 14 days. […] Further studies of diamidoxime metabolism are being performed using cultured cell lines and cell-free enzyme preparations to understand more about the metabolic mechanisms of prodrug activation.
^a Dose units were μmol/kg/day. Each compound was administered to 8
rats once daily for 14 days. Doses marked with (*) were by oral gavage,
all others were i.v. via tail vein.
^c Cysts/g lung counts for the saline and pentamidine control groups
were pooled across experiments. Scores for each compound were reported as
% of the pooled saline scores. Saline: 47.53 × 10^6 cysts/g lung
(n = 45). Petamidine: 0.38 × 10^6 cysts/g lung (n = 42).

The test system of data set [2] is Pneumocystis carinii. The data set can be described thus: animal or person. As to conditions: for response vs control in vivo at 10 µmol/kg: 10.0 μmol/kg/day iv via tail vein, rats (4 rats for 3, 4, 9). It is filed as in vivo, Pneumocystis carinii; rat. The text has this:
The activity is expressed as the percent of cysts counted in treated groups as compared to untreated controls. All of the compounds in the initial screen were given by tail vein injection at a dose of 10 μmol/kg/day for 14 days. The test compounds were compared for efficacy with the standard anti-PCP compound, pentamidine, at one-half the dose of pentamidine. […] Among the 2,8-substituted derivatives, the diamidine 1 and the bis-N-isopropylamidine 2 were very potent. A dose response study was performed upon compound 2.
^c Expressed as μmol/kg/day, given iv via tail vain to at least 8
rats once daily for 14 days, unless stated otherwise.
^e Cysts/g lung counts were 69.18 (× 10^6) for the saline
control group and 0.51 (× 10^6) for the pentamidine group. These
scores were pooled across experiments involving compounds 1-9. Saline: n =
55; pentamidine: n = 52.
^g Doses given to 4 rats.
^h Doses given by oral gavage.

For data set [3], the system named is whole cells. The data set can be described thus: Conversion of diamidoxime to diamidine by whole cells (Example 2). It is filed as in vitro ADME. To be noted: preliminary results.
Data set [4] deals with Pneumocystis carinii. As to conditions: rat, in vivo; cited from earlier work.
Setting [5] is: Pneumocystis carinii, in Rattus norvegicus, iv, 336 h, once daily 14 days, read-out: Pneumocystis carinii % Saline control ± std error.
Where [6] appears, read: 10.0 μmol/kg/day i.v. via tail vein, once daily 14 days, 8 rats.

On to `N=C(N)c1ccc2oc3ccc(C(=N)N)cc3c2c1` [Compound 1 (Example 2), 2,8-Diamidinodibenzofuran dihydrochloride], for which, in data set [1], the response vs control in vivo at 10 µmol/kg was 7.15 ± 3.81% and the response vs control in vivo at 22 µmol/kg worked out at 0.1 ± 0.02%.

For `N=C(N)c1ccc2sc3ccc(C(=N)N)cc3c2c1` [Compound 1], the response vs control in vivo at 10 µmol/kg in data set [2] (setting [5]) amounted to 0.1 ± 0.03%.

Turning to `c1cc2oc3ccc(C4=NCCN4)cc3c2cc1C1=NCCN1` [Compound 2 (Example 2), 2,8-Di(2-imidazolinyl)dibenzofuran dihydrochloride], the response vs control in vivo at 10 µmol/kg in data set [1] (setting [6]) is 97.4 ± 31.9%.

Regarding `CC(C)NC(=N)c1ccc2sc3ccc(C(=N)NC(C)C)cc3c2c1` [Compound 2], in data set [2] (Pneumocystis carinii, in Rattus norvegicus, iv, 336 h, 0.1 μmol/kg/day iv, once daily 14 days, rats, read-out: Pneumocystis carinii % Saline control ± std error), the response vs control in vivo at 0.1 µmol/kg worked out at 94.8 ± 28.3%. The response vs control in vivo at 1 µmol/kg in data set [2] (Pneumocystis carinii, in Rattus norvegicus, iv, 336 h, 1.0 μmol/kg/day iv, once daily 14 days, rats, read-out: Pneumocystis carinii % Saline control ± std error) came to 12.8 ± 4.02%. For the same molecule, the response vs control in vivo at 2.5 µmol/kg in data set [2] (Pneumocystis carinii, in Rattus norvegicus, iv, 336 h, 2.5 μmol/kg/day iv, once daily 14 days, rats, read-out: Pneumocystis carinii % Saline control ± std error) is 0.19 ± 0.1%. In data set [2] (Pneumocystis carinii, in Rattus norvegicus, iv, 336 h, 5.0 μmol/kg/day iv, once daily 14 days, rats, read-out: Pneumocystis carinii % Saline control ± std error), the response vs control in vivo at 5 µmol/kg came to 0.04 ± 0.01%. Moreover, the response vs control in vivo at 10 µmol/kg in data set [2] (setting [5]) was found to be 0.01 ± 0.01%.

Turning to `CC(C)NC(=N)c1ccc2oc3ccc(C(=N)NC(C)C)cc3c2c1` [Compound 3 (Example 2), 2,8-Di(N-isopropylamidino)dibenzofuran dihydrochloride], the response vs control in vivo at 10 µmol/kg in data set [1] (setting [6]) came out at 0.5 ± 0.27%.

`NC(=NO)c1ccc2sc3ccc(C(N)=NO)cc3c2c1` [Compound 3]: the response vs control in vivo at 10 µmol/kg in data set [2] (setting [5]) came to 1.3 ± 0.84%.

`Cl.Cl.N=C(NO)c1ccc2oc3ccc(C(=N)NO)cc3c2c1` [Compound 4 (Example 2), 2,8-Di(N-hydroxylamidino)dibenzofuran dihydrochloride]: the “conversion of diamidoxime to diamidine (in words)” value in data set [3] is “less efficient than conversion of pentamidoxime to pentamidine by whole cells”. In data set [1] (once daily 14 days, 8 rats), the response vs control in vivo at 33 µmol/kg is 45.1 ± 21.6%. In data set [1] (setting [6]), the response vs control in vivo at 10 µmol/kg came out at 15.8 ± 14.6%.

As to `N=C(N)c1ccc2c(c1)oc1cc(C(=N)N)ccc12` [Compound 5 (Example 2), 3,7-Diamidinodibenzofuran dihydrochloride], the response vs control in vivo at 10 µmol/kg in data set [1] (setting [6]) was 183 ± 38.3%.

Regarding `c1cc2sc3ccc(C4=NCCN4)cc3c2cc1C1=NCCN1` [Compound 5], the response vs control in vivo at 10 µmol/kg in data set [2] (setting [5]) amounted to 28 ± 12.7%.

`c1cc2c(cc1C1=NCCN1)oc1cc(C3=NCCN3)ccc12` [Compound 6 (Example 2), 3,7-Di(2-imidazolinyl)dibenzofuran dihydrochloride]: the response vs control in vivo at 10 µmol/kg in data set [1] (setting [6]) was found to be 220 ± 39.3%.

As for `O=S1(=O)c2ccc(C3=NCCN3)cc2-c2cc(C3=NCCN3)ccc21` [Compound 6], in data set [2] (setting [5]), the response vs control in vivo at 10 µmol/kg was determined as 93.5 ± 9.58%.

With `CC(C)NC(=N)c1ccc2c(c1)oc1cc(C(=N)NC(C)C)ccc12` [Compound 7 (Example 2), 3,7-Di(isopropylamidino)dibenzofuran dihydrochloride], the response vs control in vivo at 10 µmol/kg in data set [1] (setting [6]) was determined as 0.28 ± 0.27%.

On to `N=C(N)c1ccc2c(c1)sc1cc(C(=N)N)ccc12` [Compound 7], for which the response vs control in vivo at 10 µmol/kg in data set [2] (setting [5]) was found to be 36 ± 9.59%.

`NC(=NO)c1ccc2c(c1)oc1cc(C(N)=NO)ccc12` [Compound 8 (Example 2), 3,7-Di(A-hydroxylamidino)dibenzofuran dihydrochloride]: the response vs control in vivo at 33 µmol/kg in data set [1] (once daily 14 days, 8 rats) came out at 150 ± 54%. The response vs control in vivo at 10 µmol/kg in data set [1] (setting [6]) is 166 ± 109%.

Consider `CC(C)NC(=N)c1ccc2c(c1)sc1cc(C(=N)NC(C)C)ccc12` [Compound 8], for which the response vs control in vivo at 10 µmol/kg in data set [2] (setting [5]) came to 0.04 ± 0.02%.

`Cl.Cl.N=C(NO)c1ccc2c(c1)sc1cc(C(=N)NO)ccc12` [Compound 9 (Example 1), 3,7-Bis(N-hydroxyamidino)dibenzothiophene dihydrochloride]: in data set [2] (setting [5]), the response vs control in vivo at 10 µmol/kg stood at 112 ± 76.5%. The response vs control in vivo at 33 µmol/kg in data set [2] (Pneumocystis carinii, in Rattus norvegicus, po, 336 h, 33.0 μmol/kg/day by oral gavage, once daily 14 days, 4 rats, read-out: Pneumocystis carinii % Saline control ± std error) was found to be 45.6 ± 26.1%. Besides, the “anti-PCP activity by both routes (in words)” value in data set [2] (intravenous and oral administration) is “inactive by both intravenous and oral administration”.

Turning to `N=C(N)c1ccc(OCCCCCOc2ccc(C(=N)N)cc2)cc1` [Pentamidine, reference compound], the response vs control in vivo at 22 µmol/kg turned out to be 0.8 ± 0.17% in data set [1] and 0.74 ± 0.12% in data set [2] (Pneumocystis carinii, in Rattus norvegicus, iv, 336 h, read-out: Pneumocystis carinii % Saline control ± std error). Also, the Cysts/g lung counts is reported as 0.38 × 10^6 cysts/g lung in data set [1] (pentamidine control group pooled across experiments, n = 42) and 0.51 × 10^6 cysts/g lung in data set [2] (pentamidine group pooled across experiments, n = 52, 22.0 μmol/kg/day iv).

Turning to `N/C(=N\O)c1ccc(OCCCCCOc2ccc(/C(N)=N/O)cc2)cc1` [Pentamidoxime, reference compound], the response vs control in vivo at 33 µmol/kg in data set [1] (once daily 14 days, 8 rats) is 13.8 ± 9.12%. Besides, the response vs control in vivo at 22 µmol/kg in data set [1] (22.0 μmol/kg/day i.v. via tail vein, once daily 14 days, 8 rats) worked out at 0.11 ± 0.02%. Besides, the “prodrug behaviour (in words)” value in data set [4] is “an effective prodrug”.
